This note sets out measurements from patent US8461305B2, “L-fucose α1→6 specific lectin” (J-Oil Mills, Inc., priority 2008, dated 2013).

A short description of test [1]: frontal affinity chromatography (FAC), association constant to PA sugar chains having α1→6 L-fucose. The following applies: 25 degrees C. Type of test: binding. How it is done:
The following section will describe a method of calculating an association constant by frontal affinity chromatography (FAC). This method is based on the following principle. […] Then, the elution front end (front) is observed immediately. When there is an affinity with lectin, the elution of the sugar chain is delayed.
The preparation of a lectin column used in the apparatus is performed in the method as described below. 1. Purified lectin is dissolved in 0.1 to 0.2M of NaHCO3 buffer solution (pH 8.3 to 8.5). 2. The lectin is immobilized, via a lectin primary amino group, a carrier such as NHS activated sepharose. 3. Then, the lectin is blocked by Tris buffer solution including primary amine or ethanolamine for example. 4. Lectin-sepharose is suspended in 10 mM Tris buffer, including 0.8% of NaCl (pH 7.4, TBS). Then, lectin immobilized resin is filled in a miniature column (φ2 mm×10 mm, 31.4 μl). 5. The miniature column in which the lectin immobilized resin is filled is protected by a holder and the lectin column is connected to an FAC automatic analysis apparatus (FAC-1, SHIMADZU CORPORATION).
Then, the elution of the PA sugar chain from the column is detected by a fluorescence detector (excitation wavelength/fluorescence wavelength: 310 nm/380 nm).
Based on the detection data, by using the elution front end (Vo) of the sugar chain (PA rhamnose) not interacting with lectin as a reference, the delay (V−Vo) of the elution front end (V) of a sugar chain interacting with lectin is calculated as an interaction strength. Then, based on the following FAC criteria expressions, the association constant (Ka) between the sugar chain and lectin is calculated based on V−Vo and Bt. If the interaction strength (V−Vo value) and the association constant are higher, a higher affinity is caused between lectin and an L-fucose α1→6 sugar chain.
[In the formula, A means substance used for the elution, Ao means the initial concentration of the substance A, B means a immobilized ligand, V means the elution volume, Vo means the elution front end volume of the substance not interacting with the immobilized ligand B at all, Bt means an effective ligand amount, Kd means a dissociation constant (an inverse of the association constant)].
Pyridylaminated (PA) sugar chains shown in FIG. 1 and FIG. 2 were used to frontal affinity chromatography (FAC) analysis. PA sugars were purchased from TAKARA BIO INC., SEIKAGAKU BIOBUSINESS CORPORATION, and Masuda Chemical Industries co., LTD. PA sugar were also obtained by pyridylaminating, by GlycoTAG®(TAKARA BIO INC.), an unlabeled sugar chain or a sugar chain obtained by subjecting a sugar chain to enzyme digestion for example.
Lectin was dissolved in 0.2 M NaHCO3 buffer solution (pH 8.3) including 0.5 M NaCl and coupled to the NHS-activated sepharose (GE Healthcare Bioscience) by following the manufacturer's instructions. Then, lectin immobilized sepharose was suspended in 10 mM Tris buffer (pH 7.4, TBS) including […] and the resultant matter was filled in a miniature column (φ2 mm×10 mm, 31.4 μl).
Frontal affinity chromatography was performed using FAC automatic analysis apparatus (FAC-1, SHIMADZU CORPORATION). In particular, the above-prepared lectin column was inserted to a stainless steel holder and the holder was connected to FAC-1 apparatus. The flow rate and the column temperature were maintained at 0.125 ml/min and 25 degrees C., respectively. After the miniature column was equilibrated by the TBS, an excessive volume (0.5 ml to 4 ml) of a PA sugar chain (3.75 nM or 7.5 nM) was continuously inputted to the column using an automatic sampling apparatus.
The fluorescent strength of the eluate of the PA sugar (excitation wavelength of 310 nm and fluorescence wavelength of 380 nm) was monitored to measure the interaction strength [a difference of the front end eluate to the standard oligosaccharide (PA rhamnose): V−V0]. […]

Test [2] has as its system glycoproteins. The test is described as follows: hemagglutinating inhibition test with glycoproteins (sugar binding specificity). Type of test: cell-based. From the text:
The sugar binding specificity of lectin also can be confirmed by using erythrocytes that can be specifically agglutinated by the lectin to investigate the sugar type that may inhibit the agglutination of the erythrocytes and the concentration thereof.
Various monosaccharides, oligosaccharides, and polysaccharides shown in Table 2 and glycoproteins shown in Table 3 were subjected to hemagglutinating inhibition test to evaluate PTL of Example 1 and the SRL of Example 2 with regard to the sugar binding specificity.
On a 96 well U-bottom microtiter plate, double dilution series of 10 μl of monosaccharide, oligosaccharide, polysaccharide, and glycoprotein solutions were prepared. Then, lectin solution adjusted in advance to have titer 4 was added in an amount of 10 μl to the respective wells. Then, the plate was subjected to a still-standing at a room temperature for one hour for sensitization. Then, 10 μl of 4%-red blood cell suspension was added to the respective wells and the plate was further subjected to a still-standing at a room temperature for one hour. […] The lowest concentration showing the inhibition was assumed as the minimum inhibition concentration. The lower the minimum inhibition concentration is, the higher the specificity to lectin is.
For comparison, the sugar binding specificity was evaluated using the following commercially-available lectins: Comparison Example 1: AAL (SEIKAGAKU BIOBUSINESS CORPORATION—J-OIL MILLS, Inc.), Comparison Example 2: AOL (TOKYO CHEMICAL INDUSTRY CO., LTD.—Gekkeikan Sake Company, Ltd.), Comparison Example 3: LCA (SEIKAGAKU BIOBUSINESS CORPORATION—J-OIL MILLS, Inc.), and Comparison Example 4: PSA (SEIKAGAKU BIOBUSINESS CORPORATION—J-OIL MILLS, Inc.).

Setting [3] is: inhibitor: Bovine blood serum albumin.
Setting [4] is: inhibitor: Human immune globulin A.
Where [5] appears, read: inhibitor: Human immune globulin G.
Where [6] appears, read: inhibitor: α1-acidic glycoprotein.

For the substance “Lepista sordida lectin [LSL, novel lectin purified from the mushroom Lepista sordida]”, the “association constant Ka” value in test [1] (Sugar chain No. 015) is 190000 M⁻¹; in test [1] (Sugar chain No. 201) it was 230000 M⁻¹; in test [1] (Sugar chain No. 202), 230000 M⁻¹; in test [1] (Sugar chain No. 203) it was 200000 M⁻¹; in test [1] (Sugar chain No. 401), 220000 M⁻¹; in test [1] (Sugar chain No. 402), 150000 M⁻¹. In addition, the “association constant Ka” value in test [1] (Sugar chain No. 403) was 220000 M⁻¹; in test [1] (Sugar chain No. 404) it was 260000 M⁻¹; in test [1] (Sugar chain No. 405) it was 220000 M⁻¹; in test [1] (Sugar chain No. 406), 160000 M⁻¹; in test [1] (Sugar chain No. 410), 160000 M⁻¹; in test [1] (Sugar chain No. 418), 160000 M⁻¹. In addition, in test [1] (Sugar chain No. 602), the “association constant Ka” value came to 130000 M⁻¹.

Take “Pholiota terrestris lectin [PTL, novel L-fucose α1→6 specific lectin purified from the mushroom Pholiota terrestris]”: the “minimum inhibition concentration of hemagglutination” value (“minimum inhibition concentration” for short) in test [2] (inhibitor: Asialofetuin), in test [2] (inhibitor: Asialomucin (pig)), in test [2] (setting [3]), in test [2] (inhibitor: Casein), in test [2] (inhibitor: Fetuin) and in test [2] (setting [4]) was above 250 μl/ml each time. In addition, the “minimum inhibition concentration” value in test [2] (setting [5]) is given as above 250 μl/ml; in test [2] (inhibitor: Lactoferrin), above 250 μl/ml; in test [2] (inhibitor: Mucin (bovine)), above 250 μl/ml; in test [2] (inhibitor: Mucin (pig)), above 250 μl/ml; in test [2] (inhibitor: Ribonuclease) it was above 250 μl/ml; in test [2] (inhibitor: Thyroglobulin), 250 μl/ml. Moreover, the “minimum inhibition concentration” value in test [2] (inhibitor: Transferrin) and in test [2] (setting [6]) was above 250 μl/ml in each case. For the same substance, the “association constant Ka to L-fucose α1→6 sugar chains” value in test [1] (FAC) is at least 100000 M⁻¹. Moreover, the “association constant Ka” value is 500000 M⁻¹ in test [1] (Sugar chain No. 015); 460000 M⁻¹ in test [1] (Sugar chain No. 201); 400000 M⁻¹ in test [1] (Sugar chain No. 202); 330000 M⁻¹ in test [1] (Sugar chain No. 203); 350000 M⁻¹ in test [1] (Sugar chain No. 401); 200000 M⁻¹ in test [1] (Sugar chain No. 402). The “association constant Ka” value in test [1] (Sugar chain No. 403) is 340000 M⁻¹; in test [1] (Sugar chain No. 404) it was 390000 M⁻¹; in test [1] (Sugar chain No. 405), 320000 M⁻¹; in test [1] (Sugar chain No. 406), 220000 M⁻¹; in test [1] (Sugar chain No. 407), 280000 M⁻¹; in test [1] (Sugar chain No. 410) it was 220000 M⁻¹. The “association constant Ka” value in test [1] (Sugar chain No. 413) was found to be 280000 M⁻¹; in test [1] (Sugar chain No. 418), 220000 M⁻¹; in test [1] (Sugar chain No. 601), 240000 M⁻¹; in test [1] (Sugar chain No. 602) it was 120000 M⁻¹.

As to “Stropharia rugosoannulata lectin [SRL, novel L-fucose α1→6 specific lectin purified from the mushroom Stropharia rugosoannulata]”, the “minimum inhibition concentration” value in test [2] (inhibitor: Asialofetuin), in test [2] (inhibitor: Asialomucin (pig)), in test [2] (setting [3]), in test [2] (inhibitor: Casein), in test [2] (inhibitor: Fetuin) and in test [2] (setting [4]) was above 250 μl/ml in each case. For the same substance, the “minimum inhibition concentration” value is above 250 μl/ml in test [2] (setting [5]); above 250 μl/ml in test [2] (inhibitor: Lactoferrin); above 250 μl/ml in test [2] (inhibitor: Mucin (bovine)); above 250 μl/ml in test [2] (inhibitor: Mucin (pig)); above 250 μl/ml in test [2] (inhibitor: Ribonuclease); 250 μl/ml in test [2] (inhibitor: Thyroglobulin). Moreover, the “minimum inhibition concentration” value in test [2] (inhibitor: Transferrin) and in test [2] (setting [6]) was above 250 μl/ml in each case. Besides, the “association constant Ka” value was 49000 M⁻¹ in test [1] (Sugar chain No. 015); 64000 M⁻¹ in test [1] (Sugar chain No. 201); 61000 M⁻¹ in test [1] (Sugar chain No. 202); 52000 M⁻¹ in test [1] (Sugar chain No. 203); 57000 M⁻¹ in test [1] (Sugar chain No. 401); 44000 M⁻¹ in test [1] (Sugar chain No. 402). Moreover, the “association constant Ka” value in test [1] (Sugar chain No. 403) was found to be 56000 M⁻¹; in test [1] (Sugar chain No. 404) it was 58000 M⁻¹; in test [1] (Sugar chain No. 405), 54000 M⁻¹; in test [1] (Sugar chain No. 406) it was 38000 M⁻¹; in test [1] (Sugar chain No. 407) it was 10000 M⁻¹; in test [1] (Sugar chain No. 410) it was 39000 M⁻¹. The “association constant Ka” value worked out at 10000 M⁻¹ in test [1] (Sugar chain No. 413), 4300 M⁻¹ in test [1] (Sugar chain No. 418), 10000 M⁻¹ in test [1] (Sugar chain No. 601) and 32000 M⁻¹ in test [1] (Sugar chain No. 602).

With Naematoloma sublateritium lectin [NSL], the “association constant Ka” value in test [1] (Sugar chain No. 015) amounted to 36000 M⁻¹; in test [1] (Sugar chain No. 201) it was 38000 M⁻¹; in test [1] (Sugar chain No. 202) it was 39000 M⁻¹; in test [1] (Sugar chain No. 203), 30000 M⁻¹; in test [1] (Sugar chain No. 401) it was 51000 M⁻¹; in test [1] (Sugar chain No. 402), 36000 M⁻¹. Also, the “association constant Ka” value turned out to be 52000 M⁻¹ in test [1] (Sugar chain No. 403); 43000 M⁻¹ in test [1] (Sugar chain No. 404); 50000 M⁻¹ in test [1] (Sugar chain No. 405); 23000 M⁻¹ in test [1] (Sugar chain No. 406); 31000 M⁻¹ in test [1] (Sugar chain No. 410); 35000 M⁻¹ in test [1] (Sugar chain No. 418). Besides, the “association constant Ka” value in test [1] (Sugar chain No. 602) came out at 19000 M⁻¹.
